Patent US10822338B2, “Substituted aminoquinazoline compounds as A2A antagonist” (Merck Sharp & Dohme Corp., priority 2015, dated 2020)

Molecular target: human A2A receptor (Homo sapiens (Human), UniProt P29274)
Test: A2A competition binding assay using Scintillation Proximity technology
Details: 0.5 nM tritiated radioligand, Cheng-Prusoff
Experimental: Binding affinities of compounds of the invention for the human A2A receptor were determined in a competition binding assay using Scintillation Proximity technology. Thus, 1^μg (^ denotes 1 μg of membrane/well), or preferably 0.25 μg of membranes from HEK293 cells expressing the human A2a receptor were incubated with a compound of the invention at concentrations ranging from 3000 nM to 0.15 nM in a reaction mixture containing also 0.5 nM of a tritiated form of 5-amino-7-[2-phenethyl]-2-(furan-2-yl)-7H-pyrazolo[4,3-e][1,2,4]triazolo[1,5-c]pyrimidine (the tritiated compound) and 25 μg of wheat germ agglutin-coated yttrium silicate SPA beads for one hour at room temperature with agitation. The beads were then allowed to settle to the bottom of the wells for 1 hr, after which the membrane-associated radioactivity was determined by scintillation counting in a TopCount microplate reader. Ki values were determined using the Cheng-Prusoff equation.
HEK293 cells expressing the human, rat, dog or monkey adenosine 2a receptor (Purchased from Perkin-Elmer # RBHA2AM400UA).
The Tritiated compound was prepared in-house by MRL Radiochemistry according to published methods.
Wheat germ agglutinin-coated yttrium silicate SPA beads (GE Healthcare #RPNQ0023). Dilute to 25 mg/mL in assay buffer.
Assay Buffer was prepared in house: Dulbecco's calcium and magnesium free phosphate buffered saline+10 mM MgCl2
Adenosine deaminase from calf intestine, 10 mg/2 mL (Roche #10 102 105 001).
A2A antagonist standard (9-chloro-1-(2-furanyl)-[1,2,4]triazolo[1,5-c]quinazolin-5-amine from Tocris Bioscience)
Make eight 1:3 serial dilutions in 100% DMSO from a 3 mM compound stock
Transfer 50 nL of compound into a 384-well OptiPlate (Perkin Elmer).
Typically, final concentrations of compound used in the assay ranged from 3000 nM to 0.152 nM.
Dilute a solution of the Tritiated compound to 1.25 nM in assay buffer. This a 2.5× solution. The final concentration in the assay is 0.5 nM. Calculate the concentration by counting two 5 μL aliquots.
Use *1 ug or preferrably 0.25 ug of membrane/well. Dilute membranes to 9.7 μg/ml in assay buffer. Treat with 20 ug/ml adenosine deaminase (ADA) for 15 minutes at room temperature to degrade endogenous adenosine.
Use 25 μg/well wheat germ agglutinin-coated yttrium silicate SPA beads.
Mix ADA-treated membranes and SPA beads together for 30 min prior to assay.
To the Perkin-Elmer Optiplate-384 containing the compound titration add 20 μL of 2.5× solution of the Tritiated compound and 30 μL of the membrane-bead mixture. Incubate for one hour at room temperature with agitation.
Include total binding (assay buffer+1% DMSO) and non-specific binding (CGS15943, 1 μM) wells.
Allow the beads to settle for one hour.
A curve fitting program (i.e., Prism, Activity Base, Chemcart) is used to determine the EC50. The Ki value is calculated using the Cheng-Prusoff equation. Ki=EC50/(1+(radioligand concentration/Kd)) Counting and Calculations
Counting and calculations were performed as described within the “A2A Activity Binding of Compounds of the Invention” section. Using the foregoing methods, the following results were obtained using compounds of the invention described herein. Each example compound tested is reported in the following format: Example number: A2A Ki (nM) selectivity.

[1] = 0.25 μg of membranes from HEK293 cells expressing the human A2a receptor per well
[2] = values marked ^: 1 μg of membrane/well (HEK293 cells expressing the human A2a receptor)

human A2A receptor, sequence (P29274 whole entry): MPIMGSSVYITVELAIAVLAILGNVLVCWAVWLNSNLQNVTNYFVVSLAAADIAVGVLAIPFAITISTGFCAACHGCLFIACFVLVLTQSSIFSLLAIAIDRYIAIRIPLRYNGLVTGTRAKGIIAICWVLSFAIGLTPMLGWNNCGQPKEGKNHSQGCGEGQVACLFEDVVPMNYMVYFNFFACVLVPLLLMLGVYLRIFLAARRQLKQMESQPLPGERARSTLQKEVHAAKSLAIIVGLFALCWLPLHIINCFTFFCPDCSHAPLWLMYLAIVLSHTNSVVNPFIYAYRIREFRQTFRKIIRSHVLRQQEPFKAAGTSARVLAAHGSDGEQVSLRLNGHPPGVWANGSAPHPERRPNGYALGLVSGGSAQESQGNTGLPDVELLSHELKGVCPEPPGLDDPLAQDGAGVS

| Ki [1] | Ki [2] | Compound |
| --- | --- | --- |
| 91 nM | – | COc1cccc2c1nc(N)n1nc(C3CCCC(N)C3)nc21 (single isomer, unassigned) [Example 30A, 2-(3-aminocyclohexyl)-7-methoxy-[1,2,4]triazolo[1,5-c]quinazolin-5-amine] |
| – | 3.2 nM | COc1cccc2c1nc(N)n1nc([C@@H]3CCCN(c4ncns4)C3)nc21 [Example 21, (R)-2-(1-(1,2,4-thiadiazol-5-yl)piperidin-3-yl)-7-methoxy-[1,2,4]triazolo[1,5-c]quinazolin-5-amine] |
| 1.7 nM | – | COc1cccc2c1nc(N)n1nc(C3CCCC(CCC(F)(F)F)C3)nc21 (single isomer, unassigned) [Example 29B, 7-methoxy-2-(3-(3,3,3-trifluoropropyl)cyclohexyl)-[1,2,4]triazolo[1,5-c]quinazolin-5-amine] |
| 0.8 nM | – | COc1cccc2c1nc(N)n1nc([C@@H]3CCCN(CC(F)(F)F)C3)nc21 [Example 23, (R)-7-methoxy-2-(1-(2,2,2-trifluoroethyl)piperidin-3-yl)-[1,2,4]triazolo[1,5-c]quinazolin-5-amine] |
| – | 1.3 nM | COc1cccc2c1nc(N)n1nc([C@@H]3CCCN(C(=O)c4ccccc4)C3)nc21 [Example 37, (R)-(3-(5-amino-7-methoxy-[1,2,4]triazolo[1,5-c]quinazolin-2-yl)piperidin-1-yl)(phenyl)methanone] |
| 2 nM | – | COc1cccc2c1nc(N)n1nc([C@@H]3CCCN(Cc4cc(F)cc(C(F)(F)F)c4)C3)nc21 [Example 46, 2-((3R)-1-[3-fluoro-5-(trifluoromethyl)benzyl)piperidin-3-yl)-7-methoxy[1,2,4]triazolo [1,5-c]quinazolin-5-amine] |
| 3.1 nM | – | COCCN1CCC[C@@H](c2nc3c4cccc(OC)c4nc(N)n3n2)C1 [Example 6, (R)-7-methoxy-2-(1-(2-methoxyethyl)piperidin-3-yl)-[1,2,4]triazolo[1,5-c]quinazolin-5-amine] |
| 5.4 nM | – | COc1cccc2c1nc(N)n1nc([C@@H]3CCCN(CCN(C)C)C3)nc21 [Example 4, (R)-2-(1-(2-(dimethylamino)ethyl)piperidin-3-yl)-7-methoxy-[1,2,4]triazolo[1,5-c]quinazolin-5-amine] |
| – | 0.8 nM | COc1cccc2c1nc(N)n1nc([C@@H]3CCCN(c4ncc(C)s4)C3)nc21 [Example 22, (R)-7-methoxy-2-(1-(5-methylthiazol-2-yl)piperidin-3-yl)-[1,2,4]triazolo[1,5-c]quinazolin-5-amine] |
| – | 1.5 nM | COc1cccc2c1nc(N)n1nc([C@@H]3CCCN(C(=O)c4ocnc4C)C3)nc21 [Example 40, 7-methoxy-2-((3R)-1-((4-methyl-1,3-oxazol-5-yl)carbonyl)piperidin-3-yl)[1,2,4]triazolo[1,5-c]quinazolin-5-amine] |
| 16 nM | – | COc1cccc2c1nc(N)n1nc(C3CCCC(CCC(F)(F)F)C3)nc21 (single isomer, unassigned) [Example 29A, 7-methoxy-2-(3-(3,3,3-trifluoropropyl)cyclohexyl)-[1,2,4]triazolo[1,5-c]quinazolin-5-amine] |
| – | 55 nM | Nc1nc2c3c(ccc2c2nc(C4CCCN(CCC(F)(F)F)C4)nn12)OC(F)(F)O3 (single isomer, unassigned) [Example 56B] |
| 0.3 nM | – | COc1cccc2c1nc(N)n1nc(C3CC4CCC3N(CC(F)(F)F)C4)nc21 (single isomer, unassigned) [Example 35C, 7-methoxy-2-(2-(2,2,2-trifluoroethyl)-2-azabicyclo[2.2.2]octan-6-yl)-[1,2,4]triazolo[1,5-c]quinazolin-5-amine] |
| 9.7 nM | – | COc1cccc2c1nc(N)n1nc([C@@H]3CCCN(CC4CCCC4)C3)nc21 [Example 47, 2-((3R)-1-(cyclopentylmethyl)piperidin-3-yl)-7-methoxy[1,2,4]triazolo [1,5-c]quinazolin-5-amine] |
| 0.4 nM | – | COc1cccc2c1nc(N)n1nc(C3CCCC(CCC(F)(F)F)C3)nc21 (single isomer, unassigned) [Example 29C, 7-methoxy-2-(3-(3,3,3-trifluoropropyl)cyclohexyl)-[1,2,4]triazolo[1,5-c]quinazolin-5-amine] |
| 1.9 nM | – | COc1cccc2c1nc(N)n1nc(C3CC(F)(F)CCO3)nc21 (single isomer, unassigned) [Example 55A, 2-(4,4-difluorotetrahydro-2H-pyran-2-yl)-7-methoxy-[1,2,4]triazolo[1,5-c]quinazolin-5-amine] |
| 0.5 nM | – | COc1cccc2c1nc(N)n1nc([C@@H]3CC(F)(F)CN3)nc21 [Example 57, (S)-2-(4,4-difluoropyrrolidin-2-yl)-7-methoxy-[1,2,4]triazolo[1,5-c]quinazolin-5-amine] |
| – | 34 nM | CCN1CCC[C@@H](c2nc3c4cccc(OC)c4nc(N)n3n2)C1 [Example 5, (R)-2-(1-ethylpiperidin-3-yl)-7-methoxy-[1,2,4]triazolo[1,5-c]quinazolin-5-amine] |
| – | 2.7 nM | COc1cccc2c1nc(N)n1nc([C@@H]3CCCN(C(=O)c4cccs4)C3)nc21 [Example 39, 7-methoxy-2-((3R)-1-(thiophen-2-ylcarbonyl)piperidin-3-yl)[1,2,4]triazolo[1,5-c]quinazolin-5-amine] |
| 17 nM | – | COc1cccc2c1nc(N)n1nc(C3CCCC(CCC(F)(F)F)C3)nc21 (single isomer, unassigned) [Example 29D, 7-methoxy-2-(3-(3,3,3-trifluoropropyl)cyclohexyl)-[1,2,4]triazolo[1,5-c]quinazolin-5-amine] |
| 6.9 nM | – | COc1cccc2c1nc(N)n1nc([C@@H]3CCCN(CCC4CC4)C3)nc21 [Example 14, (R)-2-(1-(2-cyclopropylethyl)piperidin-3-yl)-7-methoxy-[1,2,4]triazol[1,5-c]quinazolin-5-amine] |
| 33 nM | – | CCC(C)(C)N1CCC[C@@H](c2nc3c4cccc(OC)c4nc(N)n3n2)C1 [Example 31, (R)-7-methoxy-2-(1-(tert-pentyl)piperidin-3-yl)-[1,2,4]triazolo[1,5-c]quinazolin-5-amine] |
| 2.4 nM | – | COc1cccc2c1nc(N)n1nc(C3CCC(F)(F)CN3)nc21 (single isomer, unassigned) [Example 58A, 2-(5,5-difluoropiperidin-2-yl)-7-methoxy-[1,2,4]triazolo[1,5-c]quinazolin-5-amine] |
| – | 9.7 nM | Nc1nc2c(Cl)cccc2c2nc(C3CCCN(CCC(F)(F)F)C3)nn12 (racemic) [Example 27, (±)-7-chloro-2-(1-(3,3,3-trifluoropropyl)piperidin-3-yl)-[1,2,4]triazolo[1,5-c]quinazolin-5-amine] |
| 11 nM | – | Nc1nc2ccccc2c2nc([C@@H]3CCCN(CC(F)F)C3)nn12 [Example 28, (R)-2-(1-(2,2-difluoroethyl)piperidin-3-yl)-[1,2,4]triazolo[1,5-c]quinazolin-5-amine] |
| – | 2 nM | COc1cccc2c1nc(N)n1nc([C@@H]3CCCN(c4nnc(C)s4)C3)nc21 [Example 19, (R)-7-methoxy-2-(1-(5-methyl-1,3,4-thiadiazol-2-yl)piperidin-3-yl)-[1,2,4]triazolo[1,5-c]quinazolin-5-amine] |
| 0.4 nM | – | COc1cccc2c1nc(N)n1nc([C@@H]3CCCN(CCC(F)(F)C(F)(F)F)C3)nc21 [Example 11, (R)-7-methoxy-2-(1-(3,3,4,4,4-pentafluorobutyl)piperidin-3-yl)-[1,2,4]triazolo[1,5-c]quinazolin-5-amine] |
| – | 45 nM | COc1cccc2c1nc(N)n1nc([C@@H]3CCCN(CC(C)C)C3)nc21 [Example 8, (R)-2-(1-isobutylpiperidin-3-yl)-7-methoxy-[1,2,4]triazolo[1,5-c]quinazolin-5-amine] |
| 0.3 nM | – | COc1cccc2c1nc(N)n1nc(C3CCC(F)(F)CN3)nc21 (single isomer, unassigned) [Example 58B, 2-(5,5-difluoropiperidin-2-yl)-7-methoxy-[1,2,4]triazolo[1,5-c]quinazolin-5-amine] |
